Measured values reported in US20220356163A1, “SMALL MOLECULE INHIBITORS OF Id PROTEINS” (MEMORIAL SLOAN KETTERING CANCER CENTER, priority 2019, published 2022).
Where “and” joins values, the source holds several entries; their conditions need not be identical. Equal entries are not always repeated.

How the values were obtained:
[1] = Pharmacokinetics in serum after i.p. injection; format: in vivo, mouse
Description: Pharmacokinetic analyses. To determine the pharmacokinetic parameters of AGX51, eight-week old male Balb/c mice (Taconic farms) were dosed once by i.p. injection with 30 mg/kg, 50 mg/kg or 100 mg/kg AGX51 prepared in 70% DMSO (n=3 mice per group). Another set of three mice was dosed with 100 mg/kg AGX51 prepared in 100% DMSO. Blood was collected at 30 minutes, 1 hour, 3 hours, 6 hours and 24 hours post AGX51 administration and plasma analyzed via LC-MS as per the protocol previously validated in the MSKCC Antitumor Assessment Core Facility. Following blood collection, the mice were sacrificed via CO2 asphyxiation and the eyes from the 30 mg/kg treatment group were collected and flash frozen for analysis. Data obtained from LC-MS was analyzed via WinNonLin software (version 8.1) for pharmacokinetic parameters.
The determination of the feasibility of administering AGX51 systemically for the treatment of ocular retinopathies was next explored. To determine the half-life of AGX51 in serum, mice were treated by intraperitoneal (i.p.) injection with a single dose of 30 mg/kg or 50 mg/kg AGX51 in 70% DMSO and blood was collected over a 24-hour period. […] Thus, 70% formulations were used in all future studies.

[2] = Aqueous solubility; format: physicochemical
[3] = tested on: MDA-MB-436; assay: MTT assay, MDA-MB-436; format: cell-based; conditions: Homo sapiens, 24 h, MDA-MB-436, TNBC cell line, read-out: IC50 value after 24 hours of treatment
From the text: (§1) The 4T1 murine mammary tumor cell line and nine breast cancer cell lines representing the major breast cancer subtypes (ER+, HER2+, and TNBC) including MDA-MB-157, MDA-MB-436, MDA-MB-231, MDA-MB-453, MDA-MB-361, BT-474, SK-BR-3, MCF-7 and T47-D will be grown in RPMI or DMEM (Dulbecco's Modified Eagle Medium) media supplemented with 10% FBS (fetal bovine serum), 1% penicillin-streptomycin and 1% L-Glutamine. Patient derived xenograft cell lines BR7, BR11, and IBT will be established directly from breast cancer bone metastases specimens surgically resected from patients with informed consent. BR7 and BR11 specimens will be obtained from ER positive (HER2 negative and PR negative) metastatic breast cancer patients, while the IBT specimen will be obtained from a metastatic, triple negative breast cancer patient. Fresh tumor tissues will be quickly washed with ice cold PBS and minced into about 1-3 mm pieces in MEM medium (without FBS) using sterile razor blades. […] The cells will be treated with either 100 μM DMSO, AGX51, or a compound of the present technology such as AGX-A. The cell morphology and growth will be monitored daily for 1 week by microscopy for changes in morphology or cell death. […] Absorbance will then measured at 570 nm using a plate reader (Synergy 2, BioTek). […]

[4] = tested on: MDA-MB-453; assay: MTT assay, MDA-MB-453; format: cell-based; set-up: scale not given here; conditions: MDA-MB-453, HER-2 +ve cell line, 24 hours
From the text: as §1

[5] = tested on: MDA-MB-157; assay: MTT assay, MDA-MB-157; format: cell-based; conditions: Homo sapiens, 24 h, MDA-MB-157, TNBC cell line, read-out: IC50 value after 24 hours of treatment
From the text: as §1

[6] = tested on: PDX RomeP_PHCH_X_0008a; assay: Murine PDX model of cholangiocarcinoma, Round 1 (AGX-A in DMSO); format: in vivo, mouse
Description: A first round of the study (“Round 1”) was planned as indicated in the Round 1 Study Protocol blow, utilizing gemcitabine in saline and AGX-A in DMSO for administration. • Mice: NSG females, 6-8 weeks old • […], serially transplanted sc with matrigel • Treatment Groups (at least 6 animals/group): treatments started when tumors reached 100 mm^3 (“Day 0” for each animal) • Group 1. Saline, i.p. once a week (“QW”) for 3-4 weeks (“×3-4 weeks”) • Group 2. Gemcitabine 25 mg/kg i.p. QW×3-4 weeks • Group 3. AGX-A 10 mg/kg i.p. once a day for 5 consecutive days (“QD×5”)×3-4 weeks • Group 4. Gemcitabine 25 mg/kg […] 10 mg/kg i.p. QD×5×3-4 weeks Tumor volumes, weights, and clinical signs were monitored a minimum of twice per week for each animal in each group throughout the study. In the Round 1 study, it was observed that animal weight in Groups 1 and 2 was essentially unchanged for the duration of the study. […] Because of this, treatment in Groups 3 and 4 was halted after Day 9 while tumor volumes, weights, and clinical signs continued to be monitored a minimum of twice per week for each subject in each group. Subsequently, the animals in Groups 3 and 4 stopped loosing weight and instead started regaining weight. Meanwhile, treatment in Groups 1 and 2 continued as planned. Due to the alterations in the planned study, Round 1 was concluded at Day 20.

CCC(=O)N(CCC(c1ccc2c(c1)OCO2)c1ccccc1OC)Cc1ccccc1 (racemic) [AGX51, N-(3-(benzo[d][1,3]dioxol-5-yl)-3-(2-methoxyphenyl)propyl)-N-benzylpropionamide]
mean maximum serum concentration ([1]; 30 mg/kg i.p., 70% DMSO): 1.1 μg/mL and 2.7 μM | mean maximum serum concentration ([1]; 50 mg/kg i.p., 70% DMSO): 1.6 μg/mL and 4 μM | mean maximum serum concentration vs lower doses ([1]; 100 mg/kg i.p., 70% DMSO): not increased further | mean serum concentration ([1]; 100 mg/kg i.p., 100% DMSO): ~12 µM | water solubility [2]: water insoluble | IC50 [3]: 30.9 µM | percentage at 60 μM (IC50 NA) [4]: NA (60 μM = 57%) | IC50 [5]: 22.3 µM

COc1ccccc1C(CCNCc1ccccc1)c1ccc(OC(C)C)cc1 (stereo not shown) [AGX-A, N-benzyl-3-(4-isopropoxyphenyl)-3-(2-methoxyphenyl)propan-1-anine]
tumor volume ([6]; AGX-A 10 mg/kg i.p. QD×5 in DMSO, treatment discontinued at 9 days, vs gemcitabine 25 mg/kg QW): performs better than the SOC drug gemcitabine | animal weight ([6]; AGX-A in DMSO, Groups 3 and 4): weight loss was observed
